Our source for the viability values is paper PMC12040169 (PLOS Biology, 2025).

The term viability denotes a read-out of living cells in per cent, often relative to untreated cells.

The nature of the data set: in vitro. The following applies: human, hela cells, % viability.
For `O=C(c1cccs1)N1CCC2(CC1)Nc1ccccc1-n1cccc12` [CBK283489], the viability at 28.5 h, 10 µM stood at 99.3%.

With `OC1(c2ccc(F)cc2)CC2CCC(C1)N2Cc1ccccn1` (stereo not drawn) [CBK283490], the viability at 28.5 h, 10 µM is 108%.

As for `CC(=O)NC1(c2ccc(F)cc2)CCN(C(=O)C(C)C)CC1` [CBK283491], the viability at 28.5 h, 10 µM worked out at 103%.

For `CC(=O)NC1(c2ccc(F)cc2)CCN(C(=O)C2CCC2)CC1` [CBK283492], the viability at 28.5 h, 10 µM amounted to 109%.

As for `O=C1NC2=C(C(=O)N(CC3CCCO3)C2)C(c2ccccc2)N1` (stereo not drawn) [CBK283494], the viability at 28.5 h, 10 µM came out at 100%.

As to `CCN(CC)C(=O)N1CCC2(CC1)CC(=O)c1ccccc1O2` [CBK283495], the viability at 28.5 h, 10 µM was 105%.

In the case of `CCN(CC)C(=O)CN1CC=C(c2ccc(C)o2)CC1` [CBK283497], the viability at 28.5 h, 10 µM came to 100%.

For `c1coc(-c2nc3cnccn3c2NC2CCCCC2)c1` [CBK283498], the viability at 28.5 h, 10 µM was 93.6%.

Regarding `CC(C)(C)NC(=O)CN1CCC(c2ccccc2F)CC1` [CBK283499], the viability at 28.5 h, 10 µM is 92.1%.

Consider `O=C(Cc1cccs1)N1CCC(O)(c2cccnc2)CC1` [CBK283501], for which the viability at 28.5 h, 10 µM was 104%.

In the case of `O=C(c1cccnc1)C1CCN(C(=O)C2CCCC2)CC1` [CBK283508], the viability at 28.5 h, 10 µM was 96.2%.

`COC(=O)[C@H]1CN(C(=O)c2ccncc2)C[C@@H]1c1ccc(F)cc1` [CBK283509]: the viability at 28.5 h, 10 µM amounted to 94.2%.

In the case of `COC(=O)[C@H]1CN(C(=O)c2cn(C)nc2C)C[C@@H]1c1ccccc1F` [CBK283511], the viability at 28.5 h, 10 µM turned out to be 88.2%.

Consider `Cc1oc(C2CC2)cc1C(=O)N1CCC(c2ccncc2)CC1` [CBK283514], for which the viability at 28.5 h, 10 µM was 95.2%.

Turning to `Cc1ccc(C(C)C(=O)N2CCC(C(=O)c3cccnc3)CC2)cc1` (stereo not drawn) [CBK283516], the viability at 28.5 h, 10 µM came out at 93.5%.

Consider `O=C(c1cccnc1)C1CCN(C(=O)Cc2ccsc2)CC1` [CBK283517], for which the viability at 28.5 h, 10 µM came out at 90.7%.

Consider `COC(=O)[C@H]1CN(C(=O)CN2CCCC2=O)C[C@@H]1c1ccccc1F` [CBK283518], for which the viability at 28.5 h, 10 µM came to 89.2%.

Regarding `CCn1c(C(CC(C)C)NC(=O)c2ccco2)nc2cccnc21` (stereo not drawn) [CBK283523], the viability at 28.5 h, 10 µM is 94.3%.

In the case of `Cc1ccsc1-c1nc2cnccn2c1NC1CCCC1` [CBK283524], the viability at 28.5 h, 10 µM was found to be 93.9%.

In the case of `CC(C)n1c(=O)n(CC(=O)N2CCCCC2)c2cccnc21` [CBK283526], the viability at 28.5 h, 10 µM came to 90.6%.

For the molecule `CC(C)n1c(=O)n(CC(=O)N2CCCCCC2)c2cccnc21` [CBK283527], the viability at 28.5 h, 10 µM turned out to be 92.4%.

For the molecule `O=C(c1cccnc1)C1CCN(C(=O)CC2CC3CCC2C3)CC1` (stereo not drawn) [CBK283530], the viability at 28.5 h, 10 µM was 95.1%.

For the molecule `CC(C)n1c(=O)n(CCN2CCCC2)c2cccnc21` [CBK283532], the viability at 28.5 h, 10 µM amounted to 98.6%.

On to `CCN(CC)C(=O)N1CCC(c2cccnc2)CC1` [CBK283535], for which the viability at 28.5 h, 10 µM was 99.9%.

On to `Cn1ccnc1C1(O)CCN(C(=O)C2(c3ccccc3)CC2)CC1` [CBK283538], for which the viability at 28.5 h, 10 µM was determined as 98.4%.

With `Cn1ccnc1C1(O)CCN(C(=O)c2ccc(F)cc2)CC1` [CBK283541], the viability at 28.5 h, 10 µM was determined as 91.5%.

For the molecule `Cn1ccnc1C1(O)CCN(C(=O)c2cccc(F)c2)CC1` [CBK283543], the viability at 28.5 h, 10 µM came out at 107%.

Turning to `O=C(c1ccncc1)N1C2CCC1CC(O)(c1ccc(F)cc1)C2` (stereo not drawn) [CBK283545], the viability at 28.5 h, 10 µM was 95.6%.

For the molecule `CC(=O)NC1(c2ccc(F)cc2)CCN(C(=O)C2CCCCC2)CC1` [CBK283546], the viability at 28.5 h, 10 µM came out at 96.9%.

For the molecule `O=C(CN1CCC(c2ccccc2F)CC1)N1CCOCC1` [CBK283548], the viability at 28.5 h, 10 µM was 89.3%.

In the case of `CCN(CC)C(=O)CN1CCC(c2ccccc2F)CC1` [CBK283549], the viability at 28.5 h, 10 µM came out at 94%.

Regarding `Cc1ccc(C2=CCN(CC(=O)Nc3nccs3)CC2)o1` [CBK283557], the viability at 28.5 h, 10 µM stood at 93.7%.

On to `COc1ccc(C2CCN(CC(=O)NCc3ccco3)CC2)cc1` [CBK283562], for which the viability at 28.5 h, 10 µM came out at 103%.

`COc1ccc(C2CCN(Cc3ccncc3)CC2)cc1` [CBK283563]: the viability at 28.5 h, 10 µM was determined as 95.8%.

As for `COc1ccc(C2CCN(CC(=O)NC3CCCC3)CC2)cc1` [CBK283565], the viability at 28.5 h, 10 µM was 98%.

For the molecule `O=C(CN1CCC(c2ccc(F)cc2)CC1)Nc1nccs1` [CBK283566], the viability at 28.5 h, 10 µM stood at 90%.

As to `Cc1csc(NC(=O)CN2CCC(c3ccc(F)cc3)CC2)n1` [CBK283567], the viability at 28.5 h, 10 µM amounted to 94.2%.

Turning to `COc1ccc(C(NC(=O)N(C(C)C)C(C)C)c2nccn2C)cc1` (stereo not drawn) [CBK283568], the viability at 28.5 h, 10 µM worked out at 111%.

As to `Cc1csc(NC(=O)CN2CCC(c3ccccc3F)CC2)n1` [CBK283569], the viability at 28.5 h, 10 µM is 109%.

On to `Cc1ccc(C2=CCN(CC(N)=O)CC2)o1` [CBK283570], for which the viability at 28.5 h, 10 µM stood at 98.3%.

With `COc1ccccc1C1(NC(=O)Cn2nc(C)cc2C)CCCC1` [CBK283573], the viability at 28.5 h, 10 µM was determined as 101%.

With `CCc1nn(CC(=O)N2CCCCC2)c(=O)c2cc3oc(C)cc3n12` [CBK283575], the viability at 28.5 h, 10 µM was 104%.

On to `O=C(CN1CCC(c2ccccc2F)CC1)N1CCCCC1` [CBK283577], for which the viability at 28.5 h, 10 µM was found to be 97.3%.

On to `O=C(CN1CCC(c2ccccc2F)CC1)N1CCCC1` [CBK283578], for which the viability at 28.5 h, 10 µM was 98.2%.

In the case of `Fc1ccc(CN2CCC(n3cnc4cccnc43)CC2)cc1` [CBK283580], the viability at 28.5 h, 10 µM came to 98.2%.

Consider `c1ccc(CCN2CCC(n3cnc4cccnc43)CC2)cc1` [CBK283581], for which the viability at 28.5 h, 10 µM amounted to 88.5%.

As for `CCc1nn(CC(=O)N(CC)CC)c(=O)c2cc3oc(C)cc3n12` [CBK283583], the viability at 28.5 h, 10 µM worked out at 99.5%.

As for `Cc1nc2c(c(=O)[nH]1)CN(C(=O)Cc1c(F)cccc1Cl)CC2` [CBK283589], the viability at 28.5 h, 10 µM amounted to 92.1%.

On to `Cc1cc2c(cc3c(=O)n(CC(=O)N4CCCCCC4)nc(C)n32)o1` [CBK283591], for which the viability at 28.5 h, 10 µM is 103%.

For the molecule `Cc1ccnn1CCC(=O)NC1(c2ccc(F)cc2)CCCC1` [CBK283600], the viability at 28.5 h, 10 µM came to 115%.

`Cc1ccc(C2=CCN(CC(=O)Nc3ccc(N(C)C)cc3)CC2)o1` [CBK283604]: the viability at 28.5 h, 10 µM was found to be 95.5%.

Regarding `Cc1ccc(C2=CCN(CC(=O)NC3CCCC3)CC2)o1` [CBK283605], the viability at 28.5 h, 10 µM stood at 92%.

With `Cc1ccc(C2=CCN(CC(=O)Nc3nc(C)c(C)s3)CC2)o1` [CBK283607], the viability at 28.5 h, 10 µM is 99.1%.

For `CCN(CC)C(=O)Cn1nc(C)n2c(cc3oc(C)cc32)c1=O` [CBK283609], the viability at 28.5 h, 10 µM is 93.7%.

`COc1cccc(C2(NC(=O)c3cnsc3)CCCC2)c1` [CBK283611]: the viability at 28.5 h, 10 µM worked out at 94.9%.

As to `CC(=O)NC1(c2ccc(F)cc2)CCN(CC(=O)NCC2CC2)CC1` [CBK283614], the viability at 28.5 h, 10 µM stood at 93.9%.

Turning to `Cc1c(C(=O)O[C@H]2C[C@@H](c3ccc(F)cc3)N(C)C2=O)cnn1C` [CBK283616], the viability at 28.5 h, 10 µM was determined as 103%.

Turning to `CC(=O)NC1(c2ccccc2F)CCN(CC(=O)N(C)C)CC1` [CBK283618], the viability at 28.5 h, 10 µM worked out at 103%.

`CCN(CC)C(=O)Cn1nc(C)n2c(cc3occc32)c1=O` [CBK283620]: the viability at 28.5 h, 10 µM is 86.7%.

For the molecule `O=C(Cn1ncc2cccn2c1=O)c1ccc(F)cc1` [CBK283627], the viability at 28.5 h, 10 µM is 82.7%.

Consider `CC(C)(C)NC(=O)CN1CCC(c2ccc(F)cc2)CC1` [CBK283629], for which the viability at 28.5 h, 10 µM is 90.1%.

Turning to `Cc1cc2c(cc3c(=O)n(CC(=O)N4CCCCC4)nc(C)n32)o1` [CBK283630], the viability at 28.5 h, 10 µM amounted to 83.4%.

For the molecule `Cc1cc2c(cc3c(=O)n(CC(=O)N4CCCC4)nc(C)n32)o1` [CBK283631], the viability at 28.5 h, 10 µM is 93.1%.

Consider `Cc1ccc(C2=CCN(CC(=O)N(C)C3CCCCC3)CC2)o1` [CBK283633], for which the viability at 28.5 h, 10 µM was found to be 91.6%.

Turning to `O=C(Cc1ccccc1F)N1CCC(n2cnc3cccnc32)CC1` [CBK283635], the viability at 28.5 h, 10 µM is 87.7%.

Consider `O=C(c1cc(F)cc(F)c1)N1CCC(n2cnc3cccnc32)CC1` [CBK283636], for which the viability at 28.5 h, 10 µM amounted to 88.6%.

In the case of `CCc1nc2cccnc2n1CCNC(=O)c1cccs1` [CBK283638], the viability at 28.5 h, 10 µM turned out to be 94.3%.

Turning to `O=C(CN1CCC(c2ccc(F)cc2)CC1)NCc1ccco1` [CBK283641], the viability at 28.5 h, 10 µM was found to be 94.9%.

As for `COc1ccccc1C1(NC(=O)c2cnsc2)CCCC1` [CBK283643], the viability at 28.5 h, 10 µM amounted to 84.5%.

Regarding `O=C(CCn1c2ccccc2c2ccccc21)N1CCn2cnnc2C1` [CBK283645], the viability at 28.5 h, 10 µM turned out to be 90.4%.

With `Cc1nc2c(c(=O)[nH]1)CN(C(=O)c1cc(C3CC3)oc1C)CC2` [CBK283650], the viability at 28.5 h, 10 µM was 103%.

`Cc1cc(C(F)(F)F)c2c(NC/C=C/c3ccco3)n[nH]c2n1` [CBK283651]: the viability at 28.5 h, 10 µM was 92.7%.

As to `Cc1nn(CC(=O)N(C)C2CCCCC2)c(=O)c2cc3occc3n12` [CBK283653], the viability at 28.5 h, 10 µM was 92.4%.

With `CCc1nn(CC(=O)N(CC)CC)c(=O)c2cc3occc3n12` [CBK283656], the viability at 28.5 h, 10 µM was 91%.

Take `CCc1nn(CC(=O)N(C(C)C)C(C)C)c(=O)c2cc3occc3n12` [CBK283658]: the viability at 28.5 h, 10 µM is 89.3%.

For `COc1cccc(C2(NC(=O)c3c(C)noc3C)CCCC2)c1` [CBK283659], the viability at 28.5 h, 10 µM stood at 98.1%.

Consider `COc1cccc(C2(NC(=O)CCn3cccn3)CCCC2)c1` [CBK283660], for which the viability at 28.5 h, 10 µM came out at 94.5%.

With `COc1ccc(C2(NC(=O)Cn3ccnc3)CCCCC2)cc1` [CBK283661], the viability at 28.5 h, 10 µM came to 84%.

`O=C(NCCc1ccccc1)c1ncoc1-c1cccs1` [CBK283662]: the viability at 28.5 h, 10 µM came out at 91.8%.

As to `COc1ccc(CCNC(=O)c2ncoc2-c2cccs2)cc1` [CBK283663], the viability at 28.5 h, 10 µM turned out to be 103%.

`Cc1cc(C)n(CCC(=O)N2CCCC2c2nc3ccccc3[nH]2)n1` (stereo not drawn) [CBK283664]: the viability at 28.5 h, 10 µM was determined as 106%.

Turning to `O=C(Cn1ncc2cccn2c1=O)OC1CCCCC1` [CBK283667], the viability at 28.5 h, 10 µM is 91.8%.

As to `O=C(c1c(F)cccc1F)N1CCC(O)(c2ccccn2)CC1` [CBK283670], the viability at 28.5 h, 10 µM amounted to 105%.

As for `O=C(c1ccc(F)cc1F)N1CCC(O)(c2ccccn2)CC1` [CBK283671], the viability at 28.5 h, 10 µM turned out to be 107%.
